ChEMBL document CHEMBL1142799, “Comparison of different heterocyclic scaffolds as substrate analog PDE5 inhibitors” (Bioorg Med Chem Lett, 2005)

Experiments:
[1] = biological target: cGMP-specific 3',5'-cyclic phosphodiesterase (Homo sapiens, UniProt O76074)
Description: Inhibition of phosphodiesterase 5

Phosphodiesterase 1 = Phosphodiesterase 1 (Homo sapiens, UniProt P54750+Q01064+Q14123); experiment: Inhibition of phosphodiesterase 1; assay type: protein assay

Row | Structure (SMILES) | IC50 [1] [nM] | IC50 (Phosphodiesterase 1) [nM]
1 | CCOc1ccccc1-c1nc(O)c2c(C)nc(C3CCCC3)n2n1 | 5 | 30
2 | CCCc1nc(C)c2c(=O)[nH]c(-c3ccccc3OCC)nn12 | – | 300
3 | CCCn1nnc2c(O)nc(-c3ccccc3OCC)nc21 | 300 | –
4 | CCOc1ccc(S(=O)(=O)N2CCN(CCO)CC2)cc1-c1nc(O)c2onc(C3CCCC3)c2n1 | 10 | 30
5 | CCOc1ccccc1-c1nc(O)c2ncn(C3CCC3)c2n1 | 100 | 1000
6 | CCCn1cnc2c(O)nc(-c3cc(S(=O)(=O)N4CCN(C)CC4)ccc3OCC)nc21 | 10 | –
7 | CCCc1nc(CC)c2c(O)nc(-c3cc(S(=O)(=O)N4CCN(C)CC4)ccc3OCC)nn12 | 8 | > 1000
8 | CCOc1ccccc1-c1nc(O)c2ncn(C3CCCC3)c2n1 | 50 | 500
9 | CCOc1ccc(S(=O)(=O)N2CCN(CCO)CC2)cc1-c1nc(O)n2c(C)nc(C3CCCC3)c2n1 | 10 | 30
10 | CCOc1ccccc1-c1nc(O)c2c(C)nc(C)n2n1 | 200 | 1000
11 | CCOc1ccccc1-c1nc(O)n2c(C)nc(C3CCCC3)c2n1 | 20 | 40
12 | CCCc1n[nH]c2c(O)nc(-c3ccccc3OCC)nc12 | 50 | –
13 | CCCc1nc(C)n2c(O)nc(-c3cc(S(=O)(=O)N4CCN(C)CC4)ccc3OCC)nc12 | 10 | 500
14 | CCOc1ccccc1-c1nc(O)c2nnc(C3CCCC3)n2n1 | 200 | 50
15 | CCOc1ccc(S(=O)(=O)N2CCN(C)CC2)cc1-c1nc(O)c2c(CC)nc(C3CCCC3)n2n1 | 7 | > 1000
16 | CCCc1nc(C)c2c(=O)[nH]c(-c3cc(S(=O)(=O)N4CCN(C)CC4)ccc3OCC)nn12 | – | 300

Row | Structure (SMILES) | IC50 [1] [nM] | IC50 (Phosphodiesterase 1) [nM]
17 | CCOc1ccc(S(=O)(=O)N2CCN(CCO)CC2)cc1-c1nc(O)c2c(n1)c(C1CCCC1)nn2C | 5 | 10
18 | CCCc1nn(C)c2c(=O)[nH]c(-c3ccccc3OCC)nc12 | – | 790
19 | CCCc1nc(C)n2c(O)nc(-c3ccccc3OCC)nc12 | 40 | 200
20 | CCCn1nc(C)c2c(=O)[nH]c(-c3cc(S(=O)(=O)N4CCN(C)CC4)ccc3OCC)nc21 | 8 | 1000
21 | CCCn1cnc2c(O)nc(-c3ccccc3OCC)nc21 | – | 10
22 | CCOc1ccc(S(=O)(=O)N2CCN(CCO)CC2)cc1-c1nc(O)c2c(C)nc(C3CCCC3)n2n1 | 1 | 10
23 | CCOc1ccccc1-c1nc(O)c2nnn(C3CCCC3)c2n1 | 500 | 800
24 | CCOc1ccccc1-c1nc(O)c2onc(C3CCCC3)c2n1 | 20 | 200
25 | CCCn1nc(C)c2c(=O)[nH]c(-c3ccccc3OCC)nc21 | 1 | –
26 | CCOc1ccc(S(=O)(=O)N2CCN(C)CC2)cc1-c1nc(O)c2c(C)nc(C3CCCC3)n2n1 | 1 | 10
27 | CCOc1ccc(S(=O)(=O)N2CCN(C)CC2)cc1-c1nc2c(c(CC)nn2C2CCCC2)c(=O)[nH]1 | 40 | > 1000
28 | CCCc1nc(C)c2c(O)nc(-c3cc(S(=O)(=O)N4CCN(CCO)CC4)ccc3OCC)nn12 | 5 | 20
29 | CCOc1ccccc1-c1nc(O)c2ncn(C3CC3)c2n1 | 300 | 1000
30 | CCCn1nc(CC)c2c(=O)[nH]c(-c3cc(S(=O)(=O)N4CCN(C)CC4)ccc3OCC)nc21 | 20 | > 1000
31 | CCOc1ccc(S(=O)(=O)N2CCN(CCO)CC2)cc1-c1nc(O)c2c(C)nc(C)n2n1 | 10 | 1000
32 | CCOc1ccc(S(=O)(=O)N2CCN(CCO)CC2)cc1-c1nc(O)c2nnc(C3CCCC3)n2n1 | 50 | 50
